From US20070032453A1, “ADJUVANT CHEMOTHERAPY FOR ANAPLASTIC GLIOMAS” (Oklahoma Medical Research Foundation, priority 2005, published 2007)
“Also recorded” adds a separate entry of the source.

Experiments:
C6 gliomas [1] = assay: C6 glioma growth in rats monitored by T2-weighted MRI (tumor volumes, ImageJ); type: in vivo, rat
Method: (§1) Cells injection. Three-month-old male Fischer 344 rats (250-350 g) were fed a choline-deficient diet. Each animal was anesthetized (3% isoflurane at 2.5 L/mn oxygen) and placed on a stereotaxic device (Stoelting, USA). The skin of the head was cleaned and incised. A hole was drilled through the skull 2 mm anterior and 2 mm lateral to the bregma, in the right-hand side of the skull. C6, 9L/LacZ or F98 cells (10^6 in 10 μL cell culture media) in a ultra-low gelling temperature agarose are injected in the cortex at a 3 mm-depth at a rate of 2 μL/mn. A waiting time of 2 min was implemented following injection and bone wax was put in the burr-hole to prevent any reflux. The wound was sutured and covered with surgical glue. The surgery was performed in sterile conditions. The syringes containing the C6, 9L/LacZ or F98 cells are kept at 37° C. until the moment of use.
PBN treatment. […] The treatment was continuous and was started at different time points. […] Some rats were not treated and served as controls (n=5).
MRI experiments. MRI experiments were performed on a 7 Tesla-30 cm horizontal bore magnet (Bruker BioSpin MRI Gmbh, Germany) at day 6-10 after the cells were injected and then every 2-3 days until the death of the rat. The animal was anesthetized (1.5% isoflurane at 1.5 L/mn oxygen) and placed in a MR probe (Bruker BioSpin MRI Gmbh, Germany). A head coil (Bruker BioSpin MRI Gmbh, Germany) was put on its head and the brain was localized.
(§2) Tumor growth monitoring. T1/T2-weighted images were obtained by a double-echo multi-slice spin echo method. Twenty-four axial slices of 1 mm thickness with an interslice distance of 1 mm were taken with a repetition time of 2369.64 ms and echo times of 17.41 ms and 63.85 ms for an acquisition time of 20 min. Tumor volumes were determined with the software ImageJ 1.32j (NIH, USA).
A T2-weighted morphological MRI method was used.

F98 gliomas = assay: F98 glioma growth in rats monitored by T2-weighted MRI; type: in vivo, rat; settings: PBN five days prior to intracerebral cell implantation
Method: as §1, §2

C6 gliomas [2] = assay: MR angiography of C6 gliomas (angiogenesis, arterial blood volumes); type: in vivo, rat
Method: Angiography. Coronal slices are acquired by a FLASH (fast low angle shot) method with a volume of interest of 2.7×1.7×1.2 cm^3, an echo time of 2.3 ms, a repetition time of 25 ms and a flip angle of 25° for an acquisition time of 27 min. A MIP (maximum intensity projection) technique was then applied to the data to obtain a 3D-angiography. Angiography was used to visualize new blood vessel formation, i.e., angiogenesis.
The method used was quantitative analysis (using a Mathematica-based program developed in our laboratory) of arterial signal intensities from in vivo MR angiography data. Glioma region arterial blood volumes were compared to blood volumes in the contralateral control cerebral hemisphere.

C6 gliomas [3] = assay: Image-guided MR spectroscopy, metabolite ratios in C6 glioma; type: in vivo, rat; settings: C6 glioma rats treated with PBN
Method: MRS experiments. Water suppression was performed by a CHESS (chemical shift suppression) method. A spectrum was acquired in a […] voxel in the tumor region and in the contralateral control side of the brain, by using PRESS (point resolved spectroscopy) with a repetition time of 3000 ms, an echo time of 21.34 ms for an acquisition time of 13 min. An outer volume suppression tool was used to get rid of the 5 mm thick surrounding signal around the voxel. The metabolite peaks were assigned as follows, based on previous literature (Fan et al., 2004; Griffin et al., 2003): NAA at 2.02 ppm, Cr at 3.03 ppm, Cho at 3.25 ppm and mobile lipids at 1.33 ppm (methylene group) and 0.9 ppm (methyl group). Peak areas were calculated in reference to Cr peak and relative ratios were determined: NAA/Cho, NAA/Cr, Cho/Cr and Lipids/Cr. A decrease in NAA levels and an increase in lipids are indicative of the presence of a glioma (Ishimaru et al., 2001).
MR spectral peak areas were measured using the Bruker XWIN NMR peak intragration software package.

C6 gliomas [4] = assay: Histology (H&E) of C6 glioma rat brain; type: in vivo; settings: C6 rat glioma treated with PBN
Description: Note that PBN-treated C6 glioma rat brain has neuronal cells that appear similar to control rat brain. Untreated C6 glioma depicts malignant cells that are atypical in appearance (grade II to III) with few mitotic and apoptotic figures being present.
Conclusion. […] The malignant cells in the large neoplastic mass (FIG. 8B) were moderately atypical in appearance (grade II to III) with few mitotic and apoptotic figures being present. Large central areas of the mass […]) were also necrotic.

C6 gliomas [5] = assay: Survival of rats with intracerebral C6 glioma; type: in vivo, rat
Description: FIG. 11—Anti-Glioma Therapy/Percent Survival. […] Based on survival data obtained from FIG. 10.

HIF-1α [6] = assay: IGF-1 induced HIF-1α expression in HCT-116 cells; type: cell-based; settings: HCT116 human colon cancer cells, 20% O2
Description: (§3) The band densities of HIF-1α were normalized by the bands of CoCl2 which was used as the positive control.
(§4) HIF-1α is a major transactivation factor which is central to the induction of VEGF as well as iNOS and many other genes very important in the development of cancer. VEGF is very important in angiogenesis essential for tumor growth and is a major target of several anti-cancer companies.

HIF-1α [7] = assay: IGF-1 induced HIF-1α expression in Hepa 1-6 cells; type: cell-based; settings: mouse hepatocellular carcinoma cell line (Hepa 1-6)
Description: as §3, §4

c-MET = c-MET (Homo sapiens, UniProt P08581); assay: c-MET inhibition
c-MET, sequence (P08581 25-1390): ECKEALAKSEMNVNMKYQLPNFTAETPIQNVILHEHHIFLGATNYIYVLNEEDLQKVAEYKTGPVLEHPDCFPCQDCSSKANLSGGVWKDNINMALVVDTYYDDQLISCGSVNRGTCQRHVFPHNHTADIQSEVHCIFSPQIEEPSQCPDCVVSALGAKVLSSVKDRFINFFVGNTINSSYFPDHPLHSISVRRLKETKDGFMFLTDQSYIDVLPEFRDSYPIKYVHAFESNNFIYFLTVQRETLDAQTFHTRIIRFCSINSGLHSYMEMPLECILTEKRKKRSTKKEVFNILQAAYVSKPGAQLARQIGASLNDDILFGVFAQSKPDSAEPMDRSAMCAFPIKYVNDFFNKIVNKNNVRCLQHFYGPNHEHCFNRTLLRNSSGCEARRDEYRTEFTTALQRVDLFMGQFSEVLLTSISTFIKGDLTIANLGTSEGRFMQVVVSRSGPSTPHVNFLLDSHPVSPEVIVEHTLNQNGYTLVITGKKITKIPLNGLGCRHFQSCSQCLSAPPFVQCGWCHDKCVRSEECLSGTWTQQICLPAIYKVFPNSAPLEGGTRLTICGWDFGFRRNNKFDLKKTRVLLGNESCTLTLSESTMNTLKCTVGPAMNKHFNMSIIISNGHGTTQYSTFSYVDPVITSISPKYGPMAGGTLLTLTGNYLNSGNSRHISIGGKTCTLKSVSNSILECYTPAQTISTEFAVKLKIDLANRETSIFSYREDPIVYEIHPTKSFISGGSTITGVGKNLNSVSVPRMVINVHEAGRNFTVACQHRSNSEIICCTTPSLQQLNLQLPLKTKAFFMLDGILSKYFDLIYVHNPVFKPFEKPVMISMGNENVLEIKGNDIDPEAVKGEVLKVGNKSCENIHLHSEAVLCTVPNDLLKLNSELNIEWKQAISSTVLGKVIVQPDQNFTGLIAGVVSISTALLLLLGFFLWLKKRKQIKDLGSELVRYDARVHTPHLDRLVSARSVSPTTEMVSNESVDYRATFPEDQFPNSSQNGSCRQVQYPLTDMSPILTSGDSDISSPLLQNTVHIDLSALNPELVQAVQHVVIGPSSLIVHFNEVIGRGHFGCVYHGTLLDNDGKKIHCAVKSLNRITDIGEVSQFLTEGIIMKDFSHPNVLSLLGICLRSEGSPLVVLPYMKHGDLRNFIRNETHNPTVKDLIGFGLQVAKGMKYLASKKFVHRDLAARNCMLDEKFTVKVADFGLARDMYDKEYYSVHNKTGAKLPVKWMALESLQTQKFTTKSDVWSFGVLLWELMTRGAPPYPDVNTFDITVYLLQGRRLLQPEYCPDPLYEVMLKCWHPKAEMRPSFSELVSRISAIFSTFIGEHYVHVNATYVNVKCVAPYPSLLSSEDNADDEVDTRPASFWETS

[8] = cited from earlier work
[9] = PBN started 5 days before surgery

## CC(C)(C)[N+]([O-])=Cc1ccccc1 [PBN, phenyl N-tert-butyl nitrone]
C6 gliomas [1]; PBN 75 mg/kg/day in drinking water started on the day of surgery or 5 days after
  doubling time: 2.3 to 2.4 days
C6 gliomas [1]; [9]
  doubling time: 4.1 days
  maximum tumor volume: 50 mm^3
C6 gliomas [1]; PBN started on the day of surgery or 5 days after
  tumor course after maximal volume: the tumor starts to regress until it almost completely disappears
C6 gliomas [1]; PBN starting 14 days after cell implantation, tumors >50 mm3
  animals with recession of tumor / eradication of further tumor formation: 40%
C6 gliomas [1]; continuous PBN starting 5 days prior to cell implantation, n=5
  glioma growth outcome: recession to no tumor in all animals studied; also recorded: either not develop or recede once intially formed in all rats
F98 gliomas
  glioma development: not develop in all rats
C6 gliomas [2]; C6 glioma, PBN 5 days prior to cell implantation, quantitative MR angiography
  normalized tumor arterial blood volumes: suppression and/or a decrease in blood volumes
C6 gliomas [2]; C6 gliomas, Example 2, qualitative MR angiography
  changes in angiogenesis (angiograms): did not seem to induce changes in angiogenesis
C6 gliomas [3]
  NAA levels compared to choline (Cho) levels: increase to normal levels
  lipid levels compared to creatine (Cr) levels: decrease to normal levels
C6 gliomas [4]
  histology (H&E), tumor cells: no evidence of tumor cells
C6 gliomas [5]; PBN 5 days prior to C6 cell implantation
  rats surviving longer than 40 days (study end-point): Eighty
C6 gliomas [5]; PBN 14 days after C6 cell implantation
  rats surviving longer than 40 days: 40%
HIF-1α [6]
  induction of HIF-1α: inhibits the induction of HIF-1α
HIF-1α [7]
  induction of HIF-1α: inhibits the induction of HIF-1α
c-MET
  c-MET inhibition: inhibits c-MET
[8]; rat, in vivo
  tissue distribution: readily and rapidly distributed almost equally to all tissues
[8]; rats
  half-life: about 132 minutes

## CC(C)(C)[N+]([O-])=Cc1ccc(O)cc1 [4-hydroxy-PBN, 4-hydroxyphenyl N-tert-butylnitrone]
C6 gliomas [1]; 75 mg/kg/day in drinking water from 5 days prior to implantation, n=5
  animals with suppressed and recessed tumor growth: 40%
C6 gliomas [2]; C6 gliomas, morphology and angiography data
  animals with decrease in tumor growth and angiogenesis: 2 of 5
